In PMC5889877, “Ex Vivo Cardiotoxicity of Antineoplastic Casiopeinas Is Mediated through Energetic Dysfunction and Triggered Mitochondrial-Dependent Apoptosis” (Oxidative Medicine and Cellular Longevity, 2018):
Marks after values point to notes of the source that are not given here.

Columns and labels:
subcutaneous tumors = settings: nude mice ref 30; cited from earlier work
[1] = system: adult rat ventricular myocytes; experiment: Cardiomyocyte viability, Alamar Blue; type: cell-based; settings: Rattus norvegicus, Ventricular myocyte, 24 h treatment, read-out: LD50 (IC50) for cardiomyocyte viability
Text: (§1) Ventricular cardiomyocytes were obtained from male Wistar rats (250–300 g) by digestion with collagenase type II as previously described. Cells were washed in Tyrode solution (mM): 130 NaCl, 5.4 KCl, 0.4 NaH2PO4, 0.5 MgCl2, 25 HEPES, and 5 glucose with pH 7.4. After isolation, cells were cultivated at a density of 3.2 × 10^3 viable cells/well in 96-well plates pretreated with laminin in M-199 medium supplemented in mM with 5 taurine, 5 creatine, 2 L-carnitine, 2.5 sodium pyruvate, and penicillin-streptomycin at 100 U·ml^−1 and 100 μg·ml^−1, respectively, at 37°C, with 5% CO2 and 95% air. After incubation for three hours, varying concentrations of Cas were tested in triplicate, exposing the myocytes during 24 hours to each treatment. At the end of the incubation period, the cytotoxicity of Cas was measured using the Alamar Blue viability test (Life Technologies, Carlsbad, CA, USA). Release of cytoplasmic lactate dehydrogenase (LDH) was determined using CytoTox-ONE homogeneous membrane integrity kit (Promega Madison, WI, USA). The activity of caspases 3/7 and caspase 9 was measured in cell lysates using caspase-Glo 3/7 and caspase-Glo 9 test luminescent assay (Promega, Madison, WI, USA), respectively. The cardiomyoblast cell line H9c2 (ATCC CRL-1446) was maintained using standard procedures in DMEM supplemented with 10% fetal bovine serum prior to the oxidative stress experiments.

isolated cardiomyocytes = experiment: LDH release (CytoTox-ONE); type: cell-based, rat; settings: cardiomyocytes treated at IC50 (II-gly 2 μM, Doxo 10 μM)
Text: as §1

isolated rat hearts [2] = experiment: Langendorff-perfused isolated rat heart: mechanical performance (RPP, HR, ±dP/dt, cardiac efficiency)
Experimental: (§2) Male Wistar rats (250–300 g) were injected with heparin (10^3 U·kg^−1, i.p.) 20 minutes prior to anesthesia with pentobarbital (100 mg·kg^−1, i.p.). When bilateral corneal reflex was absent, the heart was excised through an abdominal approach. Then, the ascending aorta was visualized and cut and the heart was placed in a cardioplegic solution. To avoid ischemia, the time between cutting the diaphragm to placing the heart in the solution was less than 60 seconds. The hearts were mounted in accordance with the Langendorff model and perfused at a constant flow (12 ml·min^−1) with a Krebs-Henseleit buffer as previously described. A latex balloon connected to a pressure transducer filled with saline solution was inserted into the left ventricle after establishing autonomous contraction. The pulmonary artery was cannulated and connected to a closed chamber using a Clark-type oxygen electrode (Yellow Springs Instruments, Yellow Springs, Ohio) to measure myocardial oxygen consumption (MVO2) in the coronary effluent. The rate of MVO2 was calculated as the difference between the concentration in the K-H buffer before (100%) and after perfusion. Data Trax software (WPI, Sarasota, Florida) was used for continuous recording of the heart rate (HR), left ventricular pressure (LVP), MVO2, and maximum positive and negative derivative of left ventricular pressure (±dP/dt). The baseline was established during 10–15 minutes of K-H perfusion. Each concentration of Cas or Doxo remained in the heart for 30 min. Hearts in the control group were perfused with K-H buffer during the whole experimental time. Rate pressure product (RPP = HR × LVP) and cardiac efficiency ([…]) were calculated as previously reported.

H9c2 cells = experiment: Mitochondrial anion superoxide production, MitoSOX flow cytometry; type: cell-based; settings: H9c2, acute; Antimycin A 10 μg/mL, Doxo 5 μM
Experimental: Thiol groups in the adenine nucleotide translocase were measured by eosin 5-maleimide interaction (EMA) with cysteine residues susceptible to oxidative stress or oxidizing agents [21] and followed by SDS/PAGE electrophoresis. […] Experiments for anion superoxide production were performed in intact cardiomyoblasts using the fluorescent probe MitoSOX (Molecular Probes) in the flow cytometer. H9c2 cells were loaded with MitoSOX during 15 min at 37°C with a cell density of 100,000 cells/mL (final concentration of MitoSOX 5 μM). Afterwards, the cells were subjected to Cas III-Ea treatment (4 or 20 μM); DOXO (5 μM) and Antimycin A (10 μg/mL) were used as positive controls. Finally, the cells were washed and analyzed on a FACSCanto II (BD Biosciences). FACS data was analyzed using FlowJo version 10.0 (Tree Star).

isolated rat hearts [3] = experiment: Myocardial oxygen consumption and energetic metabolites (ATP, PCr) in perfused hearts; settings: Cas at IC50, Doxo 5 μM
Experimental: as §2
(§3) To measure the energetic metabolites ATP, phosphocreatine (PCr), and aconitase activity at the end of the perfusion protocols, samples were prepared as follows: the hearts were removed from the perfusion system by cutting the aorta and immediately flash-frozen with liquid N2, weighed, and stored at −80°C. Afterward, the hearts were homogenized in ice-cold buffer containing 250 mM sucrose, 10 mM HEPES, and 1 mM EDTA (pH 7.4). For enzymatic determination, aliquots of the homogenate were immediately frozen in liquid nitrogen and stored at −80°C. Quantification of ATP and PCr was carried out in a HPLC system with a dual-pump gradient (Waters Chromatography, Toronto, Canada) as previously described.

[4] = system: mitochondria isolated from Cas-treated hearts; experiment: Respiratory activity of mitochondria isolated from treated hearts (Clark-type oxygen electrode); parameters: species or system rat
Experimental: (§4) To measure mitochondrial oxygen consumption, mitochondrial membrane potential, and Ca^2+ uptake, cytochrome c samples were prepared as follows: after perfusion, heart tissue from the left ventricle was minced and homogenized in cold mitochondrial isolation medium (in mM: 125 KCl, 1 EDTA, and 10 HEPES-HCl; pH 7.3). The mitochondrial fraction was obtained by differential centrifugation using the protease Nagarse, as previously described. Mitochondrial oxygen consumption was measured using a Clark-type oxygen electrode. The experiments were carried out in respiration assay medium containing 125 KCl, 10 HEPES-HCl, and 3 KH2PO4 (in mM) with pH 7.3. State 4 respiration was measured in the presence of 10 mM glutamate-malate, and state 3 respiration was evaluated after addition of 100 μM ADP. Maximal respiration was determined with 0.08 μM of carbonyl cyanide m-chlorophenyl hydrazine (CCCP). The mitochondrial membrane potential was measured by fluorometry using 5 μM safranine. Mitochondrial Ca^2+ uptake was determined with the metalochromic indicator, Arsenazo III, or calcium green 5N (5N-CG), using a medium containing 50 μM Arsenazo or 10 μM 5N-CG, 10 mM succinate plus rotenone (0.1 μg·ml^−1), 200 μM ADP, and 0.25 μg oligomycin A. Pulses of 10 nmol Ca^+2 were added every 3 minutes to reach a Ca^+2 release due to MPT opening. Mitochondrial cytochrome c quantification from Cas-treated hearts was performed using Western blot analysis as described previously. The blots were developed with Luminata crescendo substrate (Merck Millipore, Darmstadt, Germany) and detected with VisionWorks LS-UVP Chimio System (BioSpectrum 415 Imaging System, Cambridge, UK).

[5] = system: mitochondrial permeability transition pore; experiment: Mitochondrial Ca2+ retention capacity (MPT opening); parameters: species or system rat; settings: mitochondria from treated hearts, CsA 0.5 μM added in vitro
Experimental: as §4

aconitase = experiment: Mitochondrial aconitase activity in heart homogenates; settings: ex vivo heart, Cas at IC50, Doxo 5 μM
Experimental: as §3

COc1cccc2c1C(=O)c1c(O)c3c(c(O)c1C2=O)C[C@@](O)(C(=O)CO)C[C@@H]3O[C@H]1C[C@H](N)[C@H](O)[C@H](C)O1 [Doxo, Doxorubicin, reference compound]
reduction of the volume of subcutaneous tumors (subcutaneous tumors): 20% | IC50 [1]: 10 ± 0.5 µM | increase in LDH release compared to the control (isolated cardiomyocytes): 4.7 fold | IC50 (isolated rat hearts [2]; Rattus norvegicus, 0.5 h, read-out: IC50, half-maximal inhibitory concentration for RPP (heart contractile function)): 5 ± 0.3 µM | decrease of cardiac efficiency (CE) (isolated rat hearts [2]; at IC50 for RPP): 55% | +dP/dt × 1000 (contraction rate) (isolated rat hearts [2]; hearts treated at the IC50): 2.1 ± 0.23^∗ mmHg·s^−1 | Cardiac efficiency (isolated rat hearts [2]; hearts treated at the IC50): 2.8 ± 0.1^∗ RPP · MVO2 ^−1 | −dP/dt × 1000 (relaxation rate) (isolated rat hearts [2]; hearts treated at the IC50): −0.8 ± 0.18^∗ mmHg·s^−1 | t 0.5, time for half-inhibition of RPP (isolated rat hearts [2]; isolated rat heart, 5 μM): 18.6 ± 4.0^d min | heart rate (HR) reduction (isolated rat hearts [2]; perfused at 5 μM): 24% | increase in MitoSOX mean intensity (anion superoxide production) (H9c2 cells): 4 fold | PCr levels (isolated rat hearts [3]): decreased | additional MVO2 to generate the same contractile force compared to control hearts (RPP/MVO2 ratio) (isolated rat hearts [3]): 1.8 fold | change in MVO2 (isolated rat hearts [3]): no changes | decrease in ATP content (isolated rat hearts [3]): 74% | Max. respiration ([4]; 0.08 μM CCCP): 25 ± 15.1^∗ nmol O min^−1·mg^−1 | State 4 respiration ([4]; 10 mM glutamate-malate): 18 ± 2.0 nmol O min^−1·mg^−1 | Respiratory control ([4]; malate/glutamate): 1 ± 0.3^∗ | State 3 respiration ([4]; malate/glutamate, after 100 μM ADP): 25 ± 8.8^∗ nmol O min^−1·mg^−1 | protective effect of CsA on Ca2+ retention capacity [5]: 51% | aconitase activity (aconitase): decreased
